Source: patent US7993928B2, “Detection of blood plasma Danshensu and Salvianolic acid B dissipating blood stasis botanical” (Shanghai Sundise, priority 2007, dated 2011)

Settings: mammal plasma collected 0.5 hours after being drenched with strengthening body resistance and dissipating blood stasis botanical (FZHY); solid-phase extraction, UPLC/MS negative ion mode
Description: Method of pretreating mammalian blood plasma sample: Collect mammal plasma containing drugs 0.5 hours after being administered the strengthening body resistance and dissipating blood stasis botanical, misce bene after adding 2-5 mol/L phosphoric acid, and the volume ratio between the blood plasma and phosphoric acid is 1:2-3, applying the blood plasma with drugs to small column of WATERS OASIS HLB (a type of chromatographic column) activated by methanol and water; after leaching with water and 80-100% methanol and eluting with 0.2-1% ammonia-methanol, drying and enriching the eluent under the condition of 25-30° C., and redissolving the eluent with mobile phase.
UPLC/MS detection method: The analysis conditions of the applied UPLC/MS method in this invention, UPLC condition: chromatographic column: ACQUITY HPLC BEH C18 (a type of chromatographic column), 2.1×100 mm, mobile phase A: Water-Acetonitrile-Formic acid 95:5:0.1 v/v/v, mobile phase B: Acetonitrile-Formic acid 100:0.1 v/v, eluting in accordance with the following gradient: […]

SMILES | Detection in the blood plasma
O=C(O)[C@H](O)Cc1ccc(O)c(O)c1 [Danshensu] | can be detected
O=C(/C=C/c1ccc(O)c2c1[C@H](C(=O)O[C@H](Cc1ccc(O)c(O)c1)C(=O)O)[C@@H](c1ccc(O)c(O)c1)O2)O[C@H](Cc1ccc(O)c(O)c1)C(=O)O [Salvianolic acid B] | can be detected
